# From a melting point compilation (Tetko et al.; mined from patent text by program, amines drawn as free bases though some values may be those of a salt)
row,Compound,melting point [°C]
1,Cn1c(=O)c(-c2c(Cl)cccc2Cl)cc2cnc(N)nc21,235 to 237
2,COc1ccc(CCc2ccc(NC(=O)C(=O)c3cccc(C(C)(C)C)c3O)cc2)cc1OC,143 to 144
3,Nc1ccc(CCc2cscn2)cc1,69 to 70
4,Clc1cc2c(cc1Cn1c(Sc3ccccc3)nc(Br)c1Br)OCO2,165
5,O=c1c2c(cnn1CC=Cc1ccccc1)C(Cc1ccccc1)NCCS2 (centres undefined),101 to 102
6,O=C(NCc1ccc(Cl)c(C(F)(F)F)c1)Nc1cccc2[nH]ccc12,197
7,CCCc1c2c(c(O)c3c(=O)cc(C(=O)O)oc13)CCCC2,260 to 262
8,N#Cc1nc(-c2ccc(O)cc2)cs1,186 to 197
9,O=C(O)CCc1cn(Cc2ccc(OCCn3ncc4ccccc4c3=O)cc2)nc1-c1ccccc1,155 to 156
10,Cc1c(C)c2ccc(OCCCN3CCC(NC(=O)c4ccc(N)cc4)CC3)cc2oc1=O,242 to 245
11,Cn1nccc1-c1ccc2c(ccn2-c2ccc(F)cc2)c1,135 to 137
12,Cc1ccc2c(-c3nnn[nH]3)cn(Cc3ccc4oc(-c5nc(C(C)(C)C)cs5)cc4c3)c2c1,240 to 245
13,O=C(N[C@H]1C[C@H](C(=O)O)Nc2cc(Cl)cc(Cl)c21)c1ccccc1Cl (relative stereo),141 to 143
14,CCOP(=O)(Cc1ccc(NC(=O)c2cc(=O)c3ccccc3o2)cc1)OCC,153 to 154
15,Cc1c(C)c2c(c(C)c1OCc1ccccn1)C(c1ccc(C(C)C)cc1)C(C)(C)O2 (centres undefined),88 to 89
16,NNc1ccc(Cl)cc1F,57 to 63
17,CSC(Nc1ccc2c(c1)OCO2)=C(C#N)C(=O)C(C)(C)C,139 to 141
18,Nc1nnc(-c2cc3c(Oc4ccc(Br)cc4)cncc3s2)o1,270 to 273
19,CN(C)C1CCN(S(=O)(=O)c2cc(C#N)ccc2Sc2cc(Cl)ccc2Cl)CC1,140 to 143
20,CCOCCn1cc(C2CCN(CCOc3cc(OC)ccc3C(=O)O)CC2)c2cccnc21,106 to 108
21,O=c1c2c(O)c(O)ccc2c2cc(O)c(O)cc2n1Cc1ccccc1,224 to 225
22,CCCCC[C@H]1CC[C@H](C(=O)N[C@@H](C(=O)OCc2ccccc2)[C@@H](C)O)CC1,130 to 134
23,O=C(Nc1nnc(C(F)(F)F)o1)C(c1ccccc1)c1ccccc1,149 to 150
24,O=C(O)c1cccc(-c2cc3ccc(Cl)cc3[nH]c2=O)c1,> 330
25,CC(C)n1nc(-c2c(-c3ccccc3)nc(N)nc2N(C)Cc2ccccc2)ccc1=O,167 to 168

row,Compound,melting point [°C]
1,COc1ccc2[nH]c(S(=O)Cc3ncc(C)c(N4CCCCC4)c3Cl)nc2c1 (centres undefined),151 to 152
2,Cc1cc2c(-c3ccccc3Cl)c(NC(=O)Nc3cccc([N+](=O)[O-])c3)c(=O)n(C)c2cc1C,190 to 192
3,CC(C)Nc1c(C#N)cnn1-c1c(Cl)cc(SC(F)(F)F)cc1Cl,130
4,CCCOc1cccc(OCCC)c1C(=O)Nc1cc(C(C)(C)C)no1,85 to 87
5,CCCCCCCC1(C(=O)OC)CCC(C2CCC(CCC)CC2)CC1 (centres undefined),49
6,COc1ccc(CCN(C)CCc2ccc(NC(=O)c3cccc4c(=O)c5cccc(OC)c5[nH]c34)cc2)cc1OC,179
7,CN(C)C=CC(=O)c1ccc(-c2ccc(N(c3ccccc3)c3ccccc3)cc2)cc1,166 to 167
8,Cc1nc2sc3c(c2c2[nH][nH]c(=O)c12)CCN(C(=O)OC(C)(C)C)C3,> 300
9,c1ccc2c(c1)CCOC2,89 to 90
10,CC(=O)N1CCC(C)(C)C(=O)c2ccc(Cl)cc2CCC1=O,113 to 115
11,COc1ccc(COc2nn(Cc3ccccc3)cc2C=O)cc1OCc1nc(-c2ccco2)oc1C,142 to 143
12,COc1c(F)c(F)c(C(=O)C=C2OC(=O)c3ccccc32)c(F)c1F,199 to 200
13,CCOC(=O)CC(=O)c1ccc([N+](=O)[O-])c(OC)c1,94 to 95
14,COC(=O)c1ccc2c(c1)S(=O)(=O)c1ccccc1C2=O,145 to 146
15,CCOCCc1ccc(OCCNc2ncnc3scc(C)c23)c(C)c1,55 to 57
16,CC(=O)On1c(C)csc1=S,100 to 101
17,COc1ccc(S(=O)(=O)Nc2ccc([C@@H](C)C(N)=O)cc2)cc1,118 to 120
18,CCCCCCCCCCCC[C@]1(O)C(=O)O[C@H](C(=O)OC)[C@@]1(O)C(=O)OC (racemic),74 to 76
19,COc1cccc(CCc2c(CCNC(=O)CCCCC(=O)NCCc3ccccc3)ccc(OC)c2OC)c1,150 to 151
20,O=C(C=Cc1cccc([N+](=O)[O-])c1)N1CCc2c([nH]c3ccccc23)C1c1ccc2c(c1)CCO2 (centres undefined),174 to 176
21,COC(=O)Cc1ccc(O)c(Cl)c1,35 to 36
22,CCN(CC)CCNC(=O)c1cc(Cl)nc2ccc(I)cc12,106 to 108
23,CSc1ncc2c(n1)N(c1ccccc1)C(=O)N(c1ccccc1Cl)C2,79.5 to 82.4
24,CN1C[C@@H]2C[C@H]1CN2c1cc2c(cc1F)c(=O)c(C=O)cn2C1CC1,274 to 275
25,CCOc1cccc(-c2nc3n(n2)CCc2ccccc2-3)c1,102 to 103

row,Compound,melting point [°C]
1,Cc1cc(-c2ccccc2)nc2nc(N)ccc12,253 to 255
2,Cc1nn(C)c2cc(-c3ccc(F)cc3)nc(-c3ccc(S(C)(=O)=O)cc3)c12,228 to 230
3,O=c1c(O)c(-c2ccccc2-c2ccc(CNc3nc(C(F)(F)F)nc4c3CCCC4)cc2)c1=O,193
4,CS(=O)(=O)c1ccc(-c2cnn(-c3ccc(F)c(F)c3)c(=O)c2Cc2cccc(F)c2)cc1,161 to 163
5,C=CCc1c(O)c(=O)[nH]c2ccccc2c1=O,174 to 175
6,OC(CN1CCN(Cc2ccccc2)CC1)Cn1c2ccc(Br)cc2c2cc(Br)ccc21 (centres undefined),70 to 75
7,CC1CC(=O)c2c(OS(=O)(=O)c3cccs3)ccc(Br)c2C1 (centres undefined),110 to 113
8,CC(=O)NC(=O)c1cncc([N+](=O)[O-])c1,162 to 163
9,CCN(CC)CCCCC1CCN(C(=O)N2c3ccccc3C(=O)Nc3cccnc32)CC1,126 to 127
10,O=C(O)CCOc1cccc(CCNC(=O)C2Cc3ccccc3N2S(=O)(=O)c2ccc(-c3cccc(C(F)(F)F)c3)cc2)c1 (centres undefined),78
11,CCCCN(C)C(=O)c1cccc(-c2nc(=O)c3ccccc3s2)n1,80 to 81.6
12,CC(C)(C)c1ccccc1N1CCN(C(=O)Nc2ccccc2)CC1,68 to 72
13,CCOC(=O)c1cnc2nc(OCC)ccc2c1O,175 to 179
14,CCCc1nc2cc3c(cc2[nH]1)NC(=O)C3C (centres undefined),235 to 238
15,CCCCN(CC(=O)c1ccc(OCc2ccccc2)c2[nH]c(C(=O)OCCN3CCOCC3)cc12)Cc1ccccc1,149 to 150
16,O=C(O)CCc1cnoc1-c1ccccc1,90 to 91
17,CC(=O)Nc1ncc(C(C)=O)cc1C,115 to 116
18,O=C(O)CCCc1ccc(NS(=O)(=O)c2ccc(Cl)cc2)cn1,178 to 180
19,COC(=O)C1OC2(CCC3(CC2)OC(C(=O)OC)C(C(=O)OC)O3)OC1C(=O)OC (centres undefined),75 to 77
20,O=C(O)c1cnn(-c2ccc(C(F)(F)F)cc2)c1C(F)(F)F,157 to 158
21,O=C(O)C1=Cc2ccc(Br)cc2OC1C(F)(F)F (centres undefined),198 to 200
22,CCCCCCCCCCCCCCc1onc(C(=O)NN)c1O,130
23,N#CC1(c2ccc(OC(F)F)c(OC3CCCC3)c2)CCC(=O)CC1,76 to 78
24,CCOC(=O)C1(N2C(=O)c3cccc(F)c3C2=O)CC1,164
25,CCCn1c2cc(C)ccc2c2oc(C(=O)Cl)cc21,130 to 132

row,Compound,melting point [°C]
1,COC(=O)c1cccc2[nH]cc(C=O)c12,135
2,COC(=O)C(NC(=S)n1nc(Oc2ncc(C(F)(F)F)cc2Cl)cc1C)C(C)C (centres undefined),109 to 110
3,NS(=O)(=O)c1ccccc1S(=O)Cc1ccccc1 (centres undefined),206 to 209
4,CCCCCCCCOc1cccc2c1C(=O)c1cccc(OCCCCCCCC)c1C2=O,90 to 94
5,C[Si](C)(C)C#Cc1c2ccccc2c2ccc3c(C#C[Si](C)(C)C)c4ccccc4c4ccc1c2c34,286 to 288
6,CCOC(=O)c1c(C(F)(F)F)nc2ccc(OC)cc2c1O,184
7,c1ccc2c(c1)N=C(c1ccncc1)c1cccc3c1N2CC3,152 to 153
8,CCn1cc(C(=O)NCc2ccc(Cl)cc2)c(=O)c2cc(Br)sc21,196 to 197
9,COc1cccc(-c2ccc3ccc(OC)cc3c2)c1,58 to 59
10,COc1ccc2c(c1)Sc1ccc(C(C)C(N)=O)cc1C(=O)C2 (centres undefined),154 to 155
11,COc1cccc(CCCNC(=O)C2CC2)c1,65 to 67
12,COc1cc(C(C)O)ccc1OCCCC1CNCCC1C(c1ccc(F)cc1)c1ccc(F)cc1 (centres undefined),132 to 135
13,CCCCC(C(=O)OCC)=C(Nc1cccc(SC)c1)C(=O)OCC,55
14,COc1ccc2[nH]cc(CN(C)C)c2c1Cl,145 to 149
15,NS(=O)(=O)c1cc2c(s1)S(=O)(=O)CC(Br)C2O (centres undefined),217 to 219
16,O=c1[nH]c(-c2ccccc2)cn1S(=O)(=O)c1ccc2c(c1)CCN2Cc1cccnc1,244 to 245
17,COc1cc(-n2cnc3cc(-c4ccc(Cl)cc4)sc3c2=O)ccc1OC[C@H](O)C1CC1,178 to 179
18,O=S(CCCCCOc1ccc(C2=C(c3ccccc3)CCCc3cc(O)ccc32)cc1)Cc1ccccn1 (centres undefined),176
19,CC(=O)OC1CN=C(C)NC1 (centres undefined),141 to 146
20,CN(C)C(=O)c1ccc(C=O)cc1,198 to 202
21,COc1cc(NNc2nccc(Nc3ccc(N(C)C)cc3)n2)cc(OC)c1OC,212
22,Nc1cc(Cl)cc2c1NCCC2=O,142 to 144
23,CC(C(O)c1ccc2nc(N)sc2c1)N1CCC(Cc2ccccc2)CC1 (centres undefined),197 to 200
24,Cc1ccc2ccc(N3C(=O)c4ccccc4C3OC(=O)N3CCN(C)CC3)nc2n1 (centres undefined),190
